Test results reported in US20250313564A1, “ACIDIC SALT OR CRYSTAL FORM OF NITROGEN-CONTAINING FUSED RING DERIVATIVE INHIBITOR, AND PREPARATION METHOD THEREFOR AND USE THEREOF” (SHANGHAI HANSOH BIOMEDICAL CO., LTD., priority 2022, published 2025).

Assays:
[1] = tested on: luteinizing hormone (LH) in plasma of bilaterally ovariectomized (OVX) rats; experiment: Effect on luteinizing hormone (LH) content in plasma of bilaterally ovariectomized (OVX) rats; format: in vivo; details: oral 30 mg/kg, plasma LH 0-8 h
Text: The purpose of this test example is to measure the effect of compounds on luteinizing hormone (LH) in plasma of bilaterally ovariectomized (OVX) rats.
• CMCNa (30036365, Sinopharm Chemical Reagent Co., Ltd.); • Tween 80 (30189828, Sinopharm Chemical Reagent Co., Ltd.); • Rat LH ELISA Kit (S-type) purchased from Shibayagi Japan, with catalog number of AKRLH-010S, comprising Assay buffer C, Sample dilution buffer G, Washing buffer, biotinylated anti-LHα antibody, HRP-conjugated streptavidin and Chromogen (TMB).
Bilaterally ovariectomized SD rats, aged 10 weeks, female, purchased from Beijing Vital River Laboratory Animal Technology Co., Ltd. The animals were kept in SPF-grade animal room, with 5 SD rats/cage. […]
Sample detection: All reagents, samples and ELISA plates were transferred to room temperature 20° C.-25° C. and equilibrated for at least 30 min, and dissolution, vortex and centrifugation were performed for later use. […] The OD value of each well was read using the microplate reader at a wavelength of 450 nm.
Graphpad was used to draw a standard curve, and sample concentrations were calculated. If the dilution was performed during the sample detection, the calculated sample concentration needed to be multiplied by the corresponding dilution ratio in the final calculation, which was the actual concentration of the sample.

[2] = Stability of sample of crystal form A (illumination, high temperature, high humidity); format: physicochemical
Description: The free base crystal form A of compound 3 of the present invention was taken to prepare a sample, the sample was placed under the conditions of illumination 5000 lx, high temperature 60° C., high humidity 92.5% RH, and high temperature and high humidity 50° C. 75% RH, the 5-day stability and 10-day stability were investigated, a HPLC external standard method was used to determine the content, and a chromatographic peak area normalization method was used to calculate the change in related substances.

[3] = Hygroscopicity of sample of crystal form A; format: physicochemical
Description: The free base crystal form A of compound 3 was placed in saturated water vapor at different relative humidities to allow the compound to reach a dynamic equilibrium with the water vapor, and the percentage of weight gain after moisture absorption of the compound after equilibrium was calculated.

[4] = high humidity 92.5% RH, 10 days
[5] = high temperature 60° C., 5 days
[6] = high temperature 60° C., 10 days
[7] = high temperature and high humidity 50° C. 75% RH, 5 days
[8] = high temperature and high humidity 50° C. 75% RH, 10 days

Row | SMILES | ΣAUC (ΔLH/LH · h, Mean ± SD) [1] | % Increase in total impurity ([2]; high humidity 92.5% RH, 5 days) [%] | % Maximum increase in single impurity ([2]; high humidity 92.5% RH, 5 days) [%] | % Increase in total impurity [2, 4] [%] | % Maximum increase in single impurity [2, 4] [%] | % Increase in total impurity [2, 5] [%] | % Maximum increase in single impurity [2, 5] [%] | % Increase in total impurity [2, 6] [%] | % Maximum increase in single impurity [2, 6] [%] | % Increase in total impurity [2, 7] [%] | % Maximum increase in single impurity [2, 7] [%] | % Increase in total impurity [2, 8] [%] | % Maximum increase in single impurity [2, 8] [%] | % Increase in total impurity ([2]; illumination 5000 lx, 5 days) [%] | % Maximum increase in single impurity ([2]; illumination 5000 lx, 5 days) [%] | % Increase in total impurity ([2]; illumination 5000 lx, 10 days) [%] | % Maximum increase in single impurity ([2]; illumination 5000 lx, 10 days) [%] | crystal form change (XRPD) after moisture absorption and desorption ([3]; 2 cycles, 0-95% relative humidity) | hygroscopicity (in words) ([3]; RH 80%) | weight gain after moisture absorption ([3]; RH 80%)
1 | [2H]c1cc(C(=O)N2CCn3c(-c4nc(Cl)ns4)nnc3[C@H]2C)ccc1F [Compound 3, (R)-(3-(3-chloro-1,2,4-thiadiazol-5-yl)-8-methyl-5,6-dihydro-[1,2,4]triazolo[4,3-a]pyrazin-7(8H)-yl)(4-fluorophenyl-3-d)methanone] | −5.44 ± 3.02 ΔLH/LH · h | – | – | – | – | – | – | – | – | – | – | – | – | – | – | – | – | – | – | –
2 | [2H]c1cc(C(=O)N2CCn3c(-c4nc(Cl)ns4)nnc3[C@H]2C)ccc1F [free base crystal form A, (R)-(3-(3-chloro-1,2,4-thiadiazol-5-yl)-8-methyl-5,6-dihydro-[1,2,4]triazolo[4,3-a]pyrazin-7(8H)-yl)(4-fluorophenyl-3-d)methanone] | – | <0.02 | 0.06 | <0.02 | 0.07 | 0.12 | 0.07 | <0.02 | 0.07 | <0.02 | 0.03 | <0.02 | <0.02 | <0.02 | 0.03 | <0.02 | 0.05 | no crystal form transformation | weak hygroscopicity | about 0.2720%
